{"source": "patent US6914045B2", "about": "“Glycopeptide antibiotics” (Wyeth Holdings Corporation, priority 2001, dated 2005)", "key": {"Enterococcus sp.": {"tested_on": "Enterococcus sp.", "assay": "in vitro antibacterial evaluation, MIC by broth dilution", "format": "cell-based", "conditions": "broth dilution, 18 hours at 35° C.", "summary_of_the_method": "(§1)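 Broth dilution per NCCLS standard M7-A2 in Muller-Hinton II […], with an inoculum of 5×10^5 CFU/mL and antibiotic spanning 64-0.06 μg/mL. The MIC is the lowest concentration that inhibits growth of the organism.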"}, "Escherichia coli": {"tested_on": "Escherichia coli", "assay": "in vitro antibacterial evaluation, MIC by broth dilution", "format": "cell-based", "conditions": "18 hours at 35° C.", "summary_of_the_method": "as §1"}, "Staphylococcus sp.": {"tested_on": "Staphylococcus sp.", "assay": "in vitro antibacterial evaluation, MIC by broth dilution", "format": "cell-based", "conditions": "broth dilution, 18 hours at 35° C.", "summary_of_the_method": "as §1"}, "Streptococcus sp.": {"tested_on": "Streptococcus sp.", "assay": "in vitro antibacterial evaluation, MIC by broth dilution", "format": "cell-based", "conditions": "broth dilution, 18 hours at 35° C.", "summary_of_the_method": "as §1"}, "[1]": {"tested_on": "Enterococcus faecalis (GC 6189)", "assay": "acute lethal infection in mice", "format": "in vivo", "conditions": "female CD-1 mice, intraperitoneal challenge, intravenous 30 min. after infection, 7 day survival", "summary_of_the_method": "(§2)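 Survival at 7 days, pooled from three independent tests, yields ED50 values. Treatment is intravenous, 30 min after ip infection of female CD-1 mice, using an inoculum lethal to untreated controls within 24-48 hr.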"}, "[2]": {"tested_on": "Staphylococcus aureus-SMITH (GC 4543)", "assay": "acute lethal infection in mice", "format": "in vivo", "conditions": "acute lethal infection, female CD-1 mice, intraperitoneal challenge, intravenous 30 min. after infection, 7 day survival", "summary_of_the_method": "as §2"}}, "data": [{"compound": "CC(c1ccccc1)C1NC(=O)CNC(=O)C(CO)NC(=O)C(C(O)C2CNC(=N)N2C2OC(CO)C(O)C(O)C2O)NC(=O)C(C(O)C2CNC(=N)N2)NC(=O)C(Cc2ccc(OC3OC(CO)C(OC4OC5COC(Cc6ccc(F)cc6)OC5C(O)C4O)C(O)C3O)cc2)NC1=O", "note": "(stereo not drawn) [Example 121, Cyclo[glycyl-β-methylphenylalanyl-O-[4-O-[4,6-O-(4-fluorophenethylidene)hexopyranosyl]-hexopyranosyl]tyrosyl-3-(2-iminoimidazolidin-4-yl)seryl-3-(3-hexopyranosyl-2-iminoimidazolidin-4-yl)serylseryl]]", "values": [{"measurement": "MIC Enterococcus avium (GC 4558)", "setting": "Enterococcus sp.; Enterococcus avium (GC 4558)", "result": 4, "unit": "µg/mL"}, {"measurement": "MIC Enterococcus faecalis (ATCC 29212)", "setting": "Enterococcus sp.; Enterococcus faecalis (ATCC 29212)", "result": 2, "unit": "µg/mL"}, {"measurement": "MIC Enterococcus faecalis (GC 2242)", "setting": "Enterococcus sp.; Enterococcus faecalis (GC 2242)", "result": 2, "unit": "µg/mL"}, {"measurement": "MIC Enterococcus faecalis (GC 2691)", "setting": "Enterococcus sp.; Enterococcus faecalis (GC 2691)", "result": 4, "unit": "µg/mL"}, {"measurement": "MIC Enterococcus faecalis (GC 3059)", "setting": "Enterococcus sp.; Enterococcus faecalis (GC 3059)", "result": 2, "unit": "µg/mL"}, {"measurement": "MIC Enterococcus faecalis (GC 4552)", "setting": "Enterococcus sp.; Enterococcus faecalis (GC 4552)", "result": 2, "unit": "µg/mL"}, {"measurement": "MIC Enterococcus faecalis (GC 4553)", "setting": "Enterococcus sp.; Enterococcus faecalis (GC 4553)", "result": 4, "unit": "µg/mL"}, {"measurement": "MIC Enterococcus faecalis (GC 4554)", "setting": "Enterococcus sp.; Enterococcus faecalis (GC 4554)", "result": 2, "unit": "µg/mL"}, {"measurement": "MIC Enterococcus faecalis (GC 6189)", "setting": "Enterococcus sp.; Enterococcus faecalis (GC 6189)", "result": 2, "unit": "µg/mL"}, {"measurement": "MIC Enterococcus faecium (GC 2243)", "setting": "Enterococcus sp.; Enterococcus faecium (GC 2243)", "result": 2, "unit": "µg/mL"}, {"measurement": "MIC Enterococcus faecium (GC 4556)", "setting": "Enterococcus sp.; Enterococcus faecium (GC 4556)", "result": 2, "unit": "µg/mL"}, {"measurement": "MIC Enterococcus faecium (GC 4557)", "setting": "Enterococcus sp.; Enterococcus faecium (GC 4557)", "result": 2, "unit": "µg/mL"}, {"measurement": "MIC Enterococcus faecalis (ATCC 29212)", "setting": "Enterococcus sp.; strain ATCC 29212", "result": 2, "unit": "µg/mL"}, {"measurement": "MIC Enterococcus faecalis (GC 2242)", "setting": "Enterococcus sp.; strain GC 2242", "result": 2, "unit": "µg/mL"}, {"measurement": "MIC Enterococcus faecium (GC 2243)", "setting": "Enterococcus sp.; strain GC 2243", "result": 2, "unit": "µg/mL"}, {"measurement": "MIC Enterococcus faecalis (GC 2691)", "setting": "Enterococcus sp.; strain GC 2691", "result": 4, "unit": "µg/mL"}, {"measurement": "MIC Enterococcus faecalis (GC 3059)", "setting": "Enterococcus sp.; strain GC 3059", "result": 2, "unit": "µg/mL"}, {"measurement": "MIC Enterococcus faecalis (GC 4552)", "setting": "Enterococcus sp.; strain GC 4552", "result": 2, "unit": "µg/mL"}, {"measurement": "MIC Enterococcus faecalis (GC 4553)", "setting": "Enterococcus sp.; strain GC 4553", "result": 4, "unit": "µg/mL"}, {"measurement": "MIC Enterococcus faecalis (GC 4554)", "setting": "Enterococcus sp.; strain GC 4554", "result": 2, "unit": "µg/mL"}, {"measurement": "MIC Enterococcus faecium (GC 4556)", "setting": "Enterococcus sp.; strain GC 4556", "result": 2, "unit": "µg/mL"}, {"measurement": "MIC Enterococcus faecium (GC 4557)", "setting": "Enterococcus sp.; strain GC 4557", "result": 2, "unit": "µg/mL"}, {"measurement": "MIC Enterococcus avium (GC 4558)", "setting": "Enterococcus sp.; strain GC 4558", "result": 4, "unit": "µg/mL"}, {"measurement": "MIC Enterococcus faecalis (GC 6189)", "setting": "Enterococcus sp.; strain GC 6189", "result": 2, "unit": "µg/mL"}, {"measurement": "MIC Escherichia coli (ATCC 25922)", "setting": "Escherichia coli; strain ATCC 25922", "result": 32, "unit": "µg/mL"}, {"measurement": "MIC Escherichia coli (GC 4559)", "setting": "Escherichia coli; strain GC 4559", "result": 32, "unit": "µg/mL"}, {"measurement": "MIC Escherichia coli (GC 4560)", "setting": "Escherichia coli; strain GC 4560", "result": 1, "unit": "µg/mL"}, {"measurement": "MIC Coagulase Negative Staphylococcus (GC 4547)", "setting": "Staphylococcus sp.", "result": 1, "unit": "µg/mL"}, {"measurement": "MIC Coagulase Negative Staphylococcus (GC 4548)", "setting": "Staphylococcus sp.", "result": 0.5, "unit": "µg/mL"}, {"measurement": "MIC Coagulase Negative Staphylococcus (GC 4549)", "setting": "Staphylococcus sp.", "result": 0.5, "unit": "µg/mL"}, {"measurement": "MIC Coagulase Negative Staphylococcus (GC 4551)", "setting": "Staphylococcus sp.", "result": 2, "unit": "µg/mL"}, {"measurement": "MIC Coagulase Negative Staphylococcus (GC 6257)", "setting": "Staphylococcus sp.", "result": 1, "unit": "µg/mL"}, {"measurement": "MIC Staphylococcus aureus (ATCC 29213)", "setting": "Staphylococcus sp.", "result": 1, "unit": "µg/mL"}, {"measurement": "MIC Staphylococcus aureus (GC 1131)", "setting": "Staphylococcus sp.", "result": 2, "unit": "µg/mL"}, {"measurement": "MIC Staphylococcus aureus (GC 3051)", "setting": "Staphylococcus sp.", "result": 1, "unit": "µg/mL"}, {"measurement": "MIC Staphylococcus aureus (GC 3053)", "setting": "Staphylococcus sp.", "result": 1, "unit": "µg/mL"}, {"measurement": "MIC Staphylococcus aureus (GC 4541)", "setting": "Staphylococcus sp.", "result": 1, "unit": "µg/mL"}, {"measurement": "MIC Staphylococcus aureus (GC 4542)", "setting": "Staphylococcus sp.", "result": 1, "unit": "µg/mL"}, {"measurement": "MIC Staphylococcus aureus (GC 4544)", "setting": "Staphylococcus sp.", "result": 2, "unit": "µg/mL"}, {"measurement": "MIC Staphylococcus aureus (GC 4545)", "setting": "Staphylococcus sp.", "result": 2, "unit": "µg/mL"}, {"measurement": "MIC Staphylococcus aureus-SMITH (GC 4543)", "setting": "Staphylococcus sp.", "result": 1, "unit": "µg/mL"}, {"measurement": "MIC Staphylococcus haemolyticus (GC 4546)", "setting": "Staphylococcus sp.", "result": 1, "unit": "µg/mL"}, {"measurement": "MIC Staphylococcus aureus (GC 1131)", "setting": "Staphylococcus sp.; inoculum 5×10^5 CFU/mL, strain GC 1131", "result": 2, "unit": "µg/mL"}, {"measurement": "MIC Staphylococcus aureus (ATCC 29213)", "setting": "Staphylococcus sp.; strain ATCC 29213", "result": 1, "unit": "µg/mL"}, {"measurement": "MIC Staphylococcus aureus (GC 3051)", "setting": "Staphylococcus sp.; strain GC 3051", "result": 1, "unit": "µg/mL"}, {"measurement": "MIC Staphylococcus aureus (GC 3053)", "setting": "Staphylococcus sp.; strain GC 3053", "result": 1, "unit": "µg/mL"}, {"measurement": "MIC Staphylococcus aureus (GC 4541)", "setting": "Staphylococcus sp.; strain GC 4541", "result": 1, "unit": "µg/mL"}, {"measurement": "MIC Staphylococcus aureus (GC 4542)", "setting": "Staphylococcus sp.; strain GC 4542", "result": 1, "unit": "µg/mL"}, {"measurement": "MIC Staphylococcus aureus (GC 4544)", "setting": "Staphylococcus sp.; strain GC 4544", "result": 2, "unit": "µg/mL"}, {"measurement": "MIC Staphylococcus aureus (GC 4545)", "setting": "Staphylococcus sp.; strain GC 4545", "result": 2, "unit": "µg/mL"}, {"measurement": "MIC Staphylococcus haemolyticus (GC 4546)", "setting": "Staphylococcus sp.; strain GC 4546", "result": 1, "unit": "µg/mL"}, {"measurement": "MIC Coagulase Negative Staphylococcus (GC 4547)", "setting": "Staphylococcus sp.; strain GC 4547", "result": 1, "unit": "µg/mL"}, {"measurement": "MIC Coagulase Negative Staphylococcus (GC 4548)", "setting": "Staphylococcus sp.; strain GC 4548", "result": 0.5, "unit": "µg/mL"}, {"measurement": "MIC Coagulase Negative Staphylococcus (GC 4549)", "setting": "Staphylococcus sp.; strain GC 4549", "result": 0.5, "unit": "µg/mL"}, {"measurement": "MIC Coagulase Negative Staphylococcus (GC 4551)", "setting": "Staphylococcus sp.; strain GC 4551", "result": 2, "unit": "µg/mL"}, {"measurement": "MIC Coagulase Negative Staphylococcus (GC 6257)", "setting": "Staphylococcus sp.; strain GC 6257", "result": 1, "unit": "µg/mL"}, {"measurement": "MIC Staphylococcus aureus-SMITH (GC 4543)", "setting": "Staphylococcus sp.; strain SMITH GC 4543", "result": 1, "unit": "µg/mL"}, {"measurement": "MIC Streptococcus agalactiae (GC 4564)", "setting": "Streptococcus sp.; Streptococcus agalactiae (GC 4564)", "result": 0.25, "unit": "µg/mL"}, {"measurement": "MIC Streptococcus pneumoniae (ATCC 6301)", "setting": "Streptococcus sp.; Streptococcus pneumoniae (ATCC 6301)", "result": "<0.06", "unit": "µg/mL"}, {"measurement": "MIC Streptococcus pneumoniae (GC 1894)", "setting": "Streptococcus sp.; Streptococcus pneumoniae (GC 1894)", "result": "<0.06", "unit": "µg/mL"}, {"measurement": "MIC Streptococcus pneumoniae (GC 4565)", "setting": "Streptococcus sp.; Streptococcus pneumoniae (GC 4565)", "result": "<0.06", "unit": "µg/mL"}, {"measurement": "MIC Streptococcus pyogenes (GC 4563)", "setting": "Streptococcus sp.; Streptococcus pyogenes (GC 4563)", "result": 0.25, "unit": "µg/mL"}, {"measurement": "MIC Streptococcus pneumoniae (ATCC 6301)", "setting": "Streptococcus sp.; strain ATCC 6301", "result": "<0.06", "unit": "µg/mL"}, {"measurement": "MIC Streptococcus pneumoniae (GC 1894)", "setting": "Streptococcus sp.; strain GC 1894", "result": "<0.06", "unit": "µg/mL"}, {"measurement": "MIC Streptococcus pyogenes (GC 4563)", "setting": "Streptococcus sp.; strain GC 4563", "result": 0.25, "unit": "µg/mL"}, {"measurement": "MIC Streptococcus agalactiae (GC 4564)", "setting": "Streptococcus sp.; strain GC 4564", "result": 0.25, "unit": "µg/mL"}, {"measurement": "MIC Streptococcus pneumoniae (GC 4565)", "setting": "Streptococcus sp.; strain GC 4565", "result": "<0.06", "unit": "µg/mL"}, {"measurement": "median effective dose (ED50), Enterococcus faecalis (GC 6189)", "setting": "[1]", "result": 0.5, "unit": "mg/kg"}, {"measurement": "median effective dose (ED50), Staphylococcus aureus-SMITH (GC 4543)", "setting": "[2]", "result": 0.32, "unit": "mg/kg"}]}]}
